# Reference: the OligoGym collection
# “And” between values parts separate entries of the source, which are not always exact repeats. Equal values may be shown once. After the bases stand the sugars from the 5' end (letter, count) and the backbone: PS all phosphorothioate, else s phosphorothioate and o phosphodiester by linkage. Methylation of C is not given here. e = 2'-O-(2-methoxyethyl) (MOE); k = constrained ethyl (cEt); d = 2'-deoxy (DNA)
# Molecular target: APOL1
# Details: ASO
Sequence,"target mRNA inhibition (A431, 0.0156 µM) [%]","target mRNA inhibition (A431, 0.0625 µM)","target mRNA inhibition (A431, 0.25 µM)","target mRNA inhibition (A431, 1 µM)","target mRNA inhibition (A431, 2 µM) [%]","target mRNA inhibition (A431, 0.04 µM)"
"TGTTATATTTGATCCT (sugars kkddddekekeddddd, PS)",17,41%,71%,85%,94,
"TGTTCTAACTCTTGGG (sugars k4 d9 k3, PS)",,75%,88%,94%,,
"TGTTTACTTACCGGGT (sugars k4 d9 k3, PS)",,60% and 83%,86% and 91%,91% and 93%,,
"TGTTTAGGCATTCAGA (sugars k4 d9 k3, PS)",,59% and 37%,,86% and 64%,,
"TTATACCAGTGTCTTC (sugars kkddddkekekkdddd, PS)",,,,,68,
"TTATATTTGATCCTCA (sugars k3 d4 k3 e1 d5, PS)",,,,,96,
"TTATATTTGATCCTCA (sugars kkddddkekekkdddd, PS)",,,,,69,
"TTATGAAATTATTGGT (sugars k3 d4 k3 e1 d5, PS)",,,,,85,
"TTATGAAATTATTGGT (sugars kkddddkdkdkddddd, PS)",,,,,47,
"TTATTCTCATGGTACA (sugars k2 d4 e3 k2 d5, PS)",,,,,48,
"TTATTCTCATGGTACA (sugars kkddddekekeddddd, PS)",,,,,51,
"TTCAGAATTTCCACTA (sugars kddddkekekeddddd, PS)",,,,,62,
"TTCTATTAGAGGGCTA (sugars k4 d9 k3, PS)",,51% and 40%,81% and 72%,92% and 84% and 98%,,68%
"TTCTATTAGAGGGCTA (sugars kkddddekekeddddd, PS)",,,,,85,
"TTCTATTAGAGGGCTA (sugars kkddddkekekddddd, PS)",,,,,53,
"TTCTCATGGTACAGGA (sugars kkddddkekekddddd, PS)",,,,,76,
"TTTAAACTCAGGTGAC (sugars kdddddkekekddddd, PS)",,,,,45,
"TTTAGAAAGGACACGG (sugars k4 d9 k3, PS)",,42%,73%,90%,,
"TTTATACCAGTGTCTT (sugars kkddddkdkdkddddd, PS)",,,,,81,
"TTTATACCAGTGTCTT (sugars kkddddkekekddddd, PS)",,,,,89,
"TTTATACCAGTGTCTT (sugars kkddddkekekkdddd, PS)",,,,,51,
"TTTGGGTCAAAAGCGA (sugars k4 d9 k3, PS)",,,66% and 85%,83% and 93%,,
"TTTGTAAGTGCAACCA (sugars k2 d4 e3 k2 d5, PS)",23,60%,87%,98%,99,
"TTTTGTAAGTGCAACC (sugars k3 d4 k3 e1 d5, PS)",38,71%,93%,97% and 98% and 94%,98,38% and 24%
"TTTTGTAAGTGCAACC (sugars kkkddddkekeddddd, PS)",21,67%,89%,97%,98,
